Experiments:
Assay type in all cases: in vivo
Erysiphe graminis = experiment: Powdery Mildew of Wheat (Erysiphe graminis--ERYSGT); details: wheat (cultivar Monon), 100 ppm spray to run off, inoculated after 24 hours; for pest or weed control at 100 ppm: Blumeria graminis, 1DP, read-out: control of plant disease, ERYSGT 1DP
Description: (§1) Compound Formulation: Compound formulation was accomplished by dissolving technical materials in acetone, with serial dilutions then made in acetone to obtain desired rates. Final treatment volumes were obtained by adding nine volumes 0.05% aqueous Tween-20 or Triton X-100, depending upon the pathogen.
Powdery Mildew of Wheat (Erysiphe graminis--ERYSGT): Wheat (cultivar Monon) was grown in a soilless peat-based potting mixture (Metromix) until the seedlings were 1-2 leaf (BBCH 12). These plants were then sprayed to run off with the test compound at a rate of 100 ppm. After 24 hours the test plants were inoculated with Erysiphe graminis by dusting spores from stock plants onto the test plants. The plants were then transferred to the greenhouse until disease developed on the untreated control plants.
(§2) the following table presents the activity of typical compounds of the present invention when evaluated in these experiments. The effectiveness of the test compounds in controlling disease was rated using the following scale: […]

Leptosphaeria nodorum = experiment: Glume blotch of wheat (Leptosphaeria nodorum--LEPTNO); details: wheat (cultivar Monon), 100 ppm spray to run off, inoculated after 24 hours; for pest or weed control at 100 ppm: Parastagonospora nodorum, 1DP, read-out: control of plant disease, LEPTNO 1DP
Description: as §1
(§3) Glume blotch of wheat (Leptosphaeria nodorum--LEPTNO): Wheat (cultivar Monon) was grown from seed in a soilless peat-based potting mixture (Metromix) until the seedlings were 1-2 leaf (BBCH 12). These plants were then sprayed to run off with the test compound at a rate of 100 ppm. After 24 hours the test plants were inoculated with an aqueous spore suspension of Leptosphaeria nodorum. The plants were then transferred to the greenhouse until disease developed on the untreated control plants.
as §2

Phytophthora infestans = experiment: whole plant or invertebrate; details: for pest or weed control at 100 ppm: Phytophthora infestans, 24 h, read-out: control of plant disease, PHYTIN 1DP
Puccinia recondita = experiment: Brown rust (Puccinia recondita--PUCCRT); details: wheat (cultivar Monon), 100 ppm spray to run off, inoculated after 24 hours; for pest or weed control at 100 ppm: Puccinia recondita, 1DP, read-out: control of plant disease, PUCCRT 1DP
Description: as §1
as §3, with “Brown rust (Puccinia recondita--PUCCRT):” for “Glume blotch of wheat (Leptosphaeria nodorum--LEPTNO):”, “[…]).” for “1-2 leaf (BBCH 12).”, “Puccinia recondita.” for “Leptosphaeria nodorum.”
as §2

| Compound | pest or weed control at 100 ppm (Erysiphe graminis) | pest or weed control at 100 ppm (Leptosphaeria nodorum) | pest or weed control at 100 ppm (Phytophthora infestans) | pest or weed control at 100 ppm (Puccinia recondita) | control of plant disease, ERYSGT 1DP (Erysiphe graminis) | control of plant disease, LEPTNO 1DP (Leptosphaeria nodorum) | control of plant disease, PHYTIN 1DP (Phytophthora infestans; tomatoes (cultivar Rutgers), 100 ppm spray to run off, inoculated after 24 hours, 1DP) | control of plant disease, PUCCRT 1DP (Puccinia recondita) |
| --- | --- | --- | --- | --- | --- | --- | --- | --- |
| CNC(=O)C(=NOC)c1ccccc1COc1ccc(-c2noc(-c3ccccc3)n2)cn1 [Example 12] | 75 to 100% | 75 to 100% | 75 to 100% | 75 to 100% | – | – | – | – |
| CNC(=O)C(=NOC)c1ccccc1COc1cccc(-c2nc(C(F)(F)F)no2)n1 [Example 89] | 0 to 24% | 0 to 24% | 75 to 100% | 75 to 100% | – | – | – | – |
| CNC(=O)C(=NOC)c1ccccc1COc1ncc(-c2noc(C)n2)cc1Cl [Example 8] | 75 to 100% | 75 to 100% | 0 to 24% | 75 to 100% | – | – | – | – |
| CCc1noc(-c2cnc(OCc3ccccc3C(=NOC)C(=O)NC)c(Cl)c2)n1 [Example 54] | 75 to 100% | 75 to 100% | 75 to 100% | 75 to 100% | – | – | – | – |
| CNC(=O)C(=NOC)c1ccccc1COc1ccc(Cl)c(-c2nc(C(C)(C)C)no2)n1 [Example 82] | 75 to 100% | 75 to 100% | 75 to 100% | 75 to 100% | – | – | – | – |
| CNC(=O)C(=NOC)c1ccccc1COc1ncc(-c2nc(CSc3ccccc3)no2)cc1Cl [Example 58] | 75 to 100% | 75 to 100% | – | 75 to 100% | – | – | – | – |
| CNC(=O)C(=NOC)c1ccccc1COc1ccc(-c2noc(C)n2)cn1 [Example 10] | 75 to 100% | 75 to 100% | 0 to 24% | 75 to 100% | – | – | – | – |
| CNC(=O)C(=NOC)c1ccccc1COc1ncc(-c2nc(C(C)(C)C)no2)cc1C [Example 60] | 75 to 100% | 75 to 100% | – | 75 to 100% | – | – | – | – |
| CNC(=O)C(=NOC)c1ccccc1COc1ccc(-c2noc(C(C)(C)C)n2)cn1 [Example 9] | 75 to 100% | 75 to 100% | 0 to 24% | 75 to 100% | – | – | – | – |
| CCc1noc(-c2cccc(OCc3ccccc3C(=NOC)C(=O)NC)n2)n1 [Example 83] | 25 to 74% | 75 to 100% | 75 to 100% | 75 to 100% | – | – | – | – |
| CNC(=O)C(=NOC)c1ccccc1COc1ccc(-c2noc(COC)n2)cn1 [Example 25] | 75 to 100% | 25 to 74% | 75 to 100% | 75 to 100% | – | – | – | – |
| CNC(=O)C(=NOC)c1ccccc1COc1ncc(-c2noc(C34CC5CC(CC(C5)C3)C4)n2)cc1Cl [Example 15] | 75 to 100% | 0 to 24% | 75 to 100% | 75 to 100% | – | – | – | – |
| CNC(=O)C(=NOC)c1ccc(C)cc1COc1ncc(-c2noc(C(F)(F)F)n2)cc1Cl [Example 33] | – | – | – | – | ++ (75-100% control of plant disease) | ++ (75-100% control of plant disease) | ++ (75-100% control of plant disease) | ++ (75-100% control of plant disease) |
| CNC(=O)C(=NOC)c1ccccc1COc1ncc(-c2noc(CSc3ccccc3)n2)cc1Cl [Example 24] | 0 to 24% | 75 to 100% | 75 to 100% | 75 to 100% | – | – | – | – |
| CNC(=O)C(=NOC)c1ccccc1COc1ncc(-c2nc(COC)no2)cc1Cl [Example 61] | 75 to 100% | 0 to 24% | – | 75 to 100% | – | – | – | – |
| CCC=Cc1nc(-c2cnc(OCc3ccccc3C(=NOC)C(=O)NC)c(Cl)c2)no1 [Example 22] | 75 to 100% | 75 to 100% | 0 to 24% | 75 to 100% | – | – | – | – |
| CCc1noc(-c2nc(OCc3ccccc3C(=NOC)C(=O)NC)ccc2Cl)n1 [Example 81] | 75 to 100% | 25 to 74% | 25 to 74% | 75 to 100% | – | – | – | – |
| CNC(=O)C(=NOC)c1ccccc1COc1ncc(-c2noc(C3CCCC3)n2)cc1Cl [Example 13] | 75 to 100% | 75 to 100% | 0 to 24% | 75 to 100% | – | – | – | – |
| CNC(=O)C(=NOC)c1ccccc1COc1ncc(-c2nc(-c3ccccc3)no2)cc1Cl [Example 48] | 75 to 100% | 25 to 74% | 75 to 100% | 75 to 100% | – | – | – | – |

| Compound | pest or weed control at 100 ppm (Erysiphe graminis) | pest or weed control at 100 ppm (Leptosphaeria nodorum) | pest or weed control at 100 ppm (Phytophthora infestans) | pest or weed control at 100 ppm (Puccinia recondita) | control of plant disease, ERYSGT 1DP (Erysiphe graminis) | control of plant disease, LEPTNO 1DP (Leptosphaeria nodorum) | control of plant disease, PHYTIN 1DP (Phytophthora infestans; tomatoes (cultivar Rutgers), 100 ppm spray to run off, inoculated after 24 hours, 1DP) | control of plant disease, PUCCRT 1DP (Puccinia recondita) |
| --- | --- | --- | --- | --- | --- | --- | --- | --- |
| CCc1noc(-c2ccc(OCc3ccccc3C(=NOC)C(=O)NC)nc2)n1 [Example 63] | 75 to 100% | 25 to 74% | – | 75 to 100% | – | – | – | – |
| CNC(=O)C(=NOC)c1ccccc1COc1ccc(-c2cc(C(C)C)on2)cn1 [Example 42] | 75 to 100% | 0 to 24% | 75 to 100% | 75 to 100% | – | – | – | – |
| CON=C(C(=O)OC)c1ccccc1COc1ncc(-c2noc(C(C)(C)C)n2)cc1Cl [Example 97] | 75 to 100% | 75 to 100% | 75 to 100% | 75 to 100% | – | – | – | – |
| CCc1noc(-c2cnc(OCc3ccccc3C(=COC)C(=O)OC)c(Cl)c2)n1 [Example 99] | 75 to 100% | 75 to 100% | 25 to 74% | 75 to 100% | – | – | – | – |
| CNC(=O)C(=NOC)c1ccccc1COc1ncc(-c2nc(C(C)(C)C)no2)cc1Cl [Example 47, Benzeneacetamide, 2-[[[3-chloro-5-(3-t-butyl-1,2,4-oxadiazol-5-yl)-2-pyridinyl]oxy]methyl]-α-(methoxyimino)-N-methyl-] | 75 to 100% | 75 to 100% | 0 to 24% | 75 to 100% | – | – | – | – |
| CNC(=O)C(=NOC)c1ccccc1COc1ncc(-c2cc(C)no2)cc1Cl [Example 79] | – | – | 0 to 24% | – | – | – | – | – |
| CNC(=O)C(=NOC)c1ccccc1COc1ncc(-c2noc(C(F)(F)F)n2)cc1Cl [Example 11] | 75 to 100% | 75 to 100% | 0 to 24% | 75 to 100% | – | – | – | – |
| CCc1cc(-c2cnc(OCc3ccccc3C(=NOC)C(=O)NC)c(Cl)c2)no1 [Example 39] | 75 to 100% | 75 to 100% | 0 to 24% | 75 to 100% | – | – | – | – |
| CNC(=O)C(=NOC)c1ccccc1COc1ccc(-c2nc(C(F)(F)F)no2)cn1 [Example 71] | 75 to 100% | 0 to 24% | 75 to 100% | 75 to 100% | – | – | – | – |
| CNC(=O)C(=NOC)c1ccccc1COc1ncc(-c2nc(C3CC3)no2)cc1Cl [Example 53] | 75 to 100% | 25 to 74% | 75 to 100% | 75 to 100% | – | – | – | – |
| CNC(=O)C(=NOC)c1ccccc1COc1ncc(-c2noc(-c3cccs3)n2)cc1Cl [Example 20] | 75 to 100% | 0 to 24% | 75 to 100% | 75 to 100% | – | – | – | – |
| COC=C(C(=O)OC)c1ccccc1COc1ncc(-c2noc(C(C)(C)C)n2)cc1Cl [Example 98] | 75 to 100% | 75 to 100% | 0 to 24% | 75 to 100% | – | – | – | – |
| CNC(=O)C(=NOC)c1ccccc1COc1ncc(-c2nc(CSC)no2)cc1Cl [Example 62] | 75 to 100% | 75 to 100% | – | 75 to 100% | – | – | – | – |
| CCc1cc(-c2ccc(OCc3ccccc3C(=NOC)C(=O)NC)nc2)on1 [Example 80] | – | – | 0 to 24% | – | – | – | – | – |
| CNC(=O)C(=NOC)c1ccccc1COc1ccc(-c2cc(-c3ccccc3)on2)cn1 [Example 44] | – | – | 0 to 24% | – | – | – | – | – |
| CNC(=O)C(=NOC)c1ccccc1COc1ncc(-c2nc(COc3ccccc3)no2)cc1Cl [Example 57] | 75 to 100% | 25 to 74% | – | 75 to 100% | – | – | – | – |
| CNC(=O)C(=NOC)c1ccccc1COc1ncc(-c2nc(C(C)C)no2)cc1Cl [Example 59] | 75 to 100% | 75 to 100% | – | 75 to 100% | – | – | – | – |
| CNC(=O)C(=NOC)c1ccccc1COc1ccc(-c2cc(C)on2)cn1 [Example 45] | – | – | 25 to 74% | – | – | – | – | – |

From US6133294A (priority 1999, dated 2000)
